BindingDB's records for patent US12377080 (Dana-Farber Cancer Institute, 2025)

Experiments:
[1] = biological target: Epidermal growth factor receptor [L858R] (Homo sapiens, UniProt P00533, L858R); assay: HTRF-Based EGFR Biochemical Assays
Description: (§1) EGFR biochemical activity measurements were carried out using the homogeneous time-resolved fluorescence (HTRF) assay (Cisbio). Inhibitors and DMSO normalizations were first dispensed to empty black low-volume 384-well plates (Corning) with D300 digital liquid dispenser (HP). All reactions were carried out at room temperature and solutions were added to plates with a Multidrop Combi Reagent Dispenser (ThermoFisher). The reaction mixture (10 μL final volume) contained 1 μM tyrosine kinase peptide-biotin substrate and mutant EGFR in a reaction buffer (50 mM HEPES pH 7,0, 5 mM MgCl2,1 mM MnCl2, 0.01% BSA, 2 mM TCEP, 0.1 mM NaVO4). Enzyme concentrations were adjusted to accommodate varying kinase activities (L858R 0.1 nM, L858R!T790M 0,02 nM). Enzyme reaction solution (2× concentrations, 5 μL) was added to 384-well plates containing compounds and incubated for 30 mins. Enzyme reactions were initiated with the addition of […] of ATP to a final concentration of 100 μM and reacted for 20 mins. Reactions were quenched with the addition of 10 μL of phospho-tyrosine antibody-Europium(III) cryptate (1-to-180 volume ratio) and Streptavidin-XL665 (46.7 nM) in EDTA-containing detection buffer, then incubated at room temperature for 1 hour, and read with a PHERAstar plate reader (excitation =337 nm, emission =620 nm and 665 nm).

[2] = biological target: Epidermal growth factor receptor [T790M,L858R] (Homo sapiens, UniProt P00533, L858R/T790M); assay: HTRF-Based EGFR Biochemical Assays
Chain of Epidermal growth factor receptor [T790M,L858R] (P00533 25-1210 T790M/L858R limits assumed): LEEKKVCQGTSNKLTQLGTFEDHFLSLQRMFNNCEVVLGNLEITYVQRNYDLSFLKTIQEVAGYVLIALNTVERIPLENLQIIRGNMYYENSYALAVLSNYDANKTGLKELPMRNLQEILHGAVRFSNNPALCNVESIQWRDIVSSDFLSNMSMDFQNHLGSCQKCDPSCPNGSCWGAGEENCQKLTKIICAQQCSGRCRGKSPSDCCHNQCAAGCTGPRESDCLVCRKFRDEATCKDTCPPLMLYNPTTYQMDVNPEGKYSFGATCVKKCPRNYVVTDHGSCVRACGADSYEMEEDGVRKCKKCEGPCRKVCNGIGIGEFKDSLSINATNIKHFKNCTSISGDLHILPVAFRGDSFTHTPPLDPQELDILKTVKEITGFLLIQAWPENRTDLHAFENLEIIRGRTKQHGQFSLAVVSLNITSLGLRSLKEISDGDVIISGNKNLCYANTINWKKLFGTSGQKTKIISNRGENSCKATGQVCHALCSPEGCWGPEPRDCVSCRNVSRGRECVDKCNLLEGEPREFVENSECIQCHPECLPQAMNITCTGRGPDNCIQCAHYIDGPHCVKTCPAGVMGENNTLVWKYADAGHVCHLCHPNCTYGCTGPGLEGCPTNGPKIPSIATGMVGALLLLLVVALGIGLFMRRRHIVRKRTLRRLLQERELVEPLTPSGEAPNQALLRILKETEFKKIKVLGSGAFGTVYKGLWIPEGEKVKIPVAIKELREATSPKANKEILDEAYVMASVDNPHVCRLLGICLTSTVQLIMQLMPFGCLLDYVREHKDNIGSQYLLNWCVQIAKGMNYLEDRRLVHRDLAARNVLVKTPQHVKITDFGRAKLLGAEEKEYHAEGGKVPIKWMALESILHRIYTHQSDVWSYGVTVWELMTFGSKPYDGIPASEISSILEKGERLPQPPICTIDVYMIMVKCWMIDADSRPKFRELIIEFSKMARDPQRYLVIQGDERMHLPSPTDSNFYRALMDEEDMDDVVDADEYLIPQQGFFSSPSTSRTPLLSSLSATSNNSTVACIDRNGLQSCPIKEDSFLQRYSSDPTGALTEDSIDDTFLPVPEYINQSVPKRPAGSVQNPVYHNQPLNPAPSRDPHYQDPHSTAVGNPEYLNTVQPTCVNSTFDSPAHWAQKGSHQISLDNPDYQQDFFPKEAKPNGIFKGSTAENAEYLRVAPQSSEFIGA
Description: as §1

Chain of Epidermal growth factor receptor [L858R] (P00533 25-1210 L858R limits assumed): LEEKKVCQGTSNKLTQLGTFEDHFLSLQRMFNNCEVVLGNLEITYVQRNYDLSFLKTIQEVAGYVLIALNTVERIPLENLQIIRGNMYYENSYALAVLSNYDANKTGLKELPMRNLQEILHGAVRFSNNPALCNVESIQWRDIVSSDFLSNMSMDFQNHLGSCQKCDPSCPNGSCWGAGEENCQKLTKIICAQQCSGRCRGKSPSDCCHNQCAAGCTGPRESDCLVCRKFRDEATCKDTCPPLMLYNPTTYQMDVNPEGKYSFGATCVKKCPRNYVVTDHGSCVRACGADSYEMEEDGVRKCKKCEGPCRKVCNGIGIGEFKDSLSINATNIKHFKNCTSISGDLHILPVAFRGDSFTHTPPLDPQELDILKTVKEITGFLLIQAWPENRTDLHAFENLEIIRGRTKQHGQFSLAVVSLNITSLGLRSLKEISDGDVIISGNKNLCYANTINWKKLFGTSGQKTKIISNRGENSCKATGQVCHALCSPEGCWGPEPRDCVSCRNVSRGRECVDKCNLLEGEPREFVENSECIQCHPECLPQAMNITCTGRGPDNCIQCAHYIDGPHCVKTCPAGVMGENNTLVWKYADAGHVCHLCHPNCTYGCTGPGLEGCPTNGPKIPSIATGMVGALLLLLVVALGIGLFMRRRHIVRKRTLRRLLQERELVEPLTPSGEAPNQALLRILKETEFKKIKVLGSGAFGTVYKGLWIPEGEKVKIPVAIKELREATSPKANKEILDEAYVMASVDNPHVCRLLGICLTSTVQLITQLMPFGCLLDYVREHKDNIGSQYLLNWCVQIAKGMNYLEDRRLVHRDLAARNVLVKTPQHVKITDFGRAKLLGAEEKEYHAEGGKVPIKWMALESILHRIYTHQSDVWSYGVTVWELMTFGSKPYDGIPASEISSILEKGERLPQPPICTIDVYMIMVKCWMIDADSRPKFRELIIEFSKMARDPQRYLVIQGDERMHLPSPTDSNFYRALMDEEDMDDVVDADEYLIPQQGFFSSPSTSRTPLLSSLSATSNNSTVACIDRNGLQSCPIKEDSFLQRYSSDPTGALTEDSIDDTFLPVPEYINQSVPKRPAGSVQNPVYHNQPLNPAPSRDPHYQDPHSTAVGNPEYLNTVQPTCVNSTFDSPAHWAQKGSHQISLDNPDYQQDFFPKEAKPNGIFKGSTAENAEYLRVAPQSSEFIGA

IC50 [1] | IC50 [2] | SMILES
> 1 µM | 0.104 µM | O=C(Nc1nccs1)C(c1cccc(F)c1)N1Cc2cnc(Br)cc2C1=O (stereo not given) [US12377080, Compound 1]
0.318 µM | 0.015 µM | O=C(Nc1nccs1)C(c1cccc(F)c1)N1Cc2ncc(Br)cc2C1=O (stereo not given) [US12377080, Compound 2]
> 1 µM | 0.04 µM | O=C(Nc1ccccn1)C(c1cccc(F)c1)N1Cc2ncc(Br)cc2C1=O (stereo not given) [US12377080, Compound 3]
> 1 µM | 0.014 µM | O=C(Nc1nccs1)C(c1cccc(F)c1)N1Cc2ccc(Br)nc2C1=O (stereo not given) [US12377080, Compound 4]
> 1 µM | 0.114 µM | O=C(Nc1ccccn1)C(c1cccc(F)c1)N1Cc2ccc(Br)nc2C1=O (stereo not given) [US12377080, Compound 5]
